Measurements: publication PMC3639963, “A New Class of Small Molecule Inhibitor of BMP Signaling” (PLoS ONE, 2013)

Assays:
Assay in all cases: Nanosyn kinase profiling
Assay type in all cases: biochemical
Settings in all cases: read-out: Percentage inhibition; for inhibition at 0.1 µM: 0.1 µM inhibitor; for inhibition at 1 µM: 1 µM inhibitor
PRKD2 = biological target: T1, PRKD2 (Homo sapiens, UniProt Q9BZL6)
T1 construct: purchased Nanosyn (enzymatic panel); SGC in-house recombinant human kinases (DSF panel); Invitrogen (ALK1-6)
T1 sequence (Q9BZL6 1-878): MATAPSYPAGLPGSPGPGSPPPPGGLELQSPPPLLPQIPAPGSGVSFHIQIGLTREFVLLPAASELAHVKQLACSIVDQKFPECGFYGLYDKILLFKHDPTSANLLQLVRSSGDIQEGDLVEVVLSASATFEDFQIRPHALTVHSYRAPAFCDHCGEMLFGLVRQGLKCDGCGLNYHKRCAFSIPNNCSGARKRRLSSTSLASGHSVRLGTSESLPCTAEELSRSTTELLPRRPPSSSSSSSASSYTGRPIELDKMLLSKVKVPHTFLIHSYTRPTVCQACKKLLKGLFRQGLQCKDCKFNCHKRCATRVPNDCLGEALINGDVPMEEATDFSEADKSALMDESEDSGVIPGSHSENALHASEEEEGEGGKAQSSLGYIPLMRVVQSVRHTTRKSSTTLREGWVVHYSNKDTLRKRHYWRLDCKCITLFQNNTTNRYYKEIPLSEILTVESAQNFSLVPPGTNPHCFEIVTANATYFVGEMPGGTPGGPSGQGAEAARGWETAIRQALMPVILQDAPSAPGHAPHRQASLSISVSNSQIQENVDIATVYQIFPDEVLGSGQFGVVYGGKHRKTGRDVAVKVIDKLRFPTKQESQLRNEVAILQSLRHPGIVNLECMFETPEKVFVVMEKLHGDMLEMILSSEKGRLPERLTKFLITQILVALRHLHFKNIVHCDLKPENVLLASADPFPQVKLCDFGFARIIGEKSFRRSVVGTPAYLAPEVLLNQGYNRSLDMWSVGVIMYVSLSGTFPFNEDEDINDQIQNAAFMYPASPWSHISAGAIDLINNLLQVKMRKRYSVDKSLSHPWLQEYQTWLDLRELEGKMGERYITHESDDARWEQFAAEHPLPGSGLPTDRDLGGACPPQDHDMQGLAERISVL
Protocol: (§1) Percentage inhibition was determined for each kinase at both 0.1 µM and 1 µM inhibitor concentration (supplemental Table S2). […]. […]. When visualized on a kinase phylogenetic tree, these were primarily clustered within the receptor tyrosine kinases (TKs) as well as the calmodulin-dependent kinases (CAMKs) (Figure 2C).
(§2) Inhibitor selectivity profiling against 200 human kinases at 0.1 and 1 µM inhibitor concentration was performed by Nanosyn (www.nanosyn.com).

IGF1R = biological target: T2, IGF1R (Homo sapiens, UniProt P08069)
T2 construct: purchased Nanosyn (enzymatic panel); SGC in-house recombinant human kinases (DSF panel); Invitrogen (ALK1-6)
T2 sequence (P08069 31-1367): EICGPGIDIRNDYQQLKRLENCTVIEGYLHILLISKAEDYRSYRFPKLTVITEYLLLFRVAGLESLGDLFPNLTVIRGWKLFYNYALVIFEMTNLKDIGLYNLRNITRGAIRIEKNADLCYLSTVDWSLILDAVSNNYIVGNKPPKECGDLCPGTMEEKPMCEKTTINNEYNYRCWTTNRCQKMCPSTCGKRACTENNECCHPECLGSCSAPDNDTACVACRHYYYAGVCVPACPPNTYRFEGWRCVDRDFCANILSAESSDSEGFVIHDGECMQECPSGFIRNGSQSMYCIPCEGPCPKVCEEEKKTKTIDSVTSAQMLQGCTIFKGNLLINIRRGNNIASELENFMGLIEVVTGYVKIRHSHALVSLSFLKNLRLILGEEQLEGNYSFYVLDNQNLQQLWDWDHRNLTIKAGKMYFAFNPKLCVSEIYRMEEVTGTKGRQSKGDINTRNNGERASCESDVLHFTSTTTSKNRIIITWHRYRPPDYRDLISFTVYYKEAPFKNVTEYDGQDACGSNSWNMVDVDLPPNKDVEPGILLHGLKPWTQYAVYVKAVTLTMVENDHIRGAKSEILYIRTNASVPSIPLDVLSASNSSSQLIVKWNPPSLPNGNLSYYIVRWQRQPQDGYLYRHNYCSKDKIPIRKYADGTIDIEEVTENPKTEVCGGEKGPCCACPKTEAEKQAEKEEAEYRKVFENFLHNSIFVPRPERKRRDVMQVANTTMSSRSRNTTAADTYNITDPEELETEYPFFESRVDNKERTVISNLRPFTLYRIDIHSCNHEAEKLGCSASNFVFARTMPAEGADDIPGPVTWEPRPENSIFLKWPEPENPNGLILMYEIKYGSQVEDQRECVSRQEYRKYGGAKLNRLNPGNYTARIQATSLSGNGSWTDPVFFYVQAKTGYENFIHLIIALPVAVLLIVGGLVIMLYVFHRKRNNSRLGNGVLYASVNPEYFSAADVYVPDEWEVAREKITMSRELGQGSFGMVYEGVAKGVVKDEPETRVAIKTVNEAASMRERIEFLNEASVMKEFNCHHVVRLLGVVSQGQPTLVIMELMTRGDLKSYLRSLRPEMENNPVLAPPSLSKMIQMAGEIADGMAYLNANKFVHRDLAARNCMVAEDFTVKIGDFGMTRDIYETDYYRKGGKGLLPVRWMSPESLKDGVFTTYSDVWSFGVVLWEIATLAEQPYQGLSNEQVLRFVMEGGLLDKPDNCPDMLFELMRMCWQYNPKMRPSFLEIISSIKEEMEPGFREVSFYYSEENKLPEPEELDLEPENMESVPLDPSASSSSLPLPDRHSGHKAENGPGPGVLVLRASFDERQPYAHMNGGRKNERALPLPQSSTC
Protocol: as §1, §2

LYNB = biological target: T3, LYNB (Homo sapiens, UniProt P07948)
T3 construct: purchased Nanosyn (enzymatic panel); SGC in-house recombinant human kinases (DSF panel); Invitrogen (ALK1-6)
Protocol: as §1, §2

MRCKβ = biological target: T4, MRCKβ (Homo sapiens, UniProt Q9Y5S2)
T4 construct: purchased Nanosyn (enzymatic panel); SGC in-house recombinant human kinases (DSF panel); Invitrogen (ALK1-6)
T4 sequence (Q9Y5S2 whole entry): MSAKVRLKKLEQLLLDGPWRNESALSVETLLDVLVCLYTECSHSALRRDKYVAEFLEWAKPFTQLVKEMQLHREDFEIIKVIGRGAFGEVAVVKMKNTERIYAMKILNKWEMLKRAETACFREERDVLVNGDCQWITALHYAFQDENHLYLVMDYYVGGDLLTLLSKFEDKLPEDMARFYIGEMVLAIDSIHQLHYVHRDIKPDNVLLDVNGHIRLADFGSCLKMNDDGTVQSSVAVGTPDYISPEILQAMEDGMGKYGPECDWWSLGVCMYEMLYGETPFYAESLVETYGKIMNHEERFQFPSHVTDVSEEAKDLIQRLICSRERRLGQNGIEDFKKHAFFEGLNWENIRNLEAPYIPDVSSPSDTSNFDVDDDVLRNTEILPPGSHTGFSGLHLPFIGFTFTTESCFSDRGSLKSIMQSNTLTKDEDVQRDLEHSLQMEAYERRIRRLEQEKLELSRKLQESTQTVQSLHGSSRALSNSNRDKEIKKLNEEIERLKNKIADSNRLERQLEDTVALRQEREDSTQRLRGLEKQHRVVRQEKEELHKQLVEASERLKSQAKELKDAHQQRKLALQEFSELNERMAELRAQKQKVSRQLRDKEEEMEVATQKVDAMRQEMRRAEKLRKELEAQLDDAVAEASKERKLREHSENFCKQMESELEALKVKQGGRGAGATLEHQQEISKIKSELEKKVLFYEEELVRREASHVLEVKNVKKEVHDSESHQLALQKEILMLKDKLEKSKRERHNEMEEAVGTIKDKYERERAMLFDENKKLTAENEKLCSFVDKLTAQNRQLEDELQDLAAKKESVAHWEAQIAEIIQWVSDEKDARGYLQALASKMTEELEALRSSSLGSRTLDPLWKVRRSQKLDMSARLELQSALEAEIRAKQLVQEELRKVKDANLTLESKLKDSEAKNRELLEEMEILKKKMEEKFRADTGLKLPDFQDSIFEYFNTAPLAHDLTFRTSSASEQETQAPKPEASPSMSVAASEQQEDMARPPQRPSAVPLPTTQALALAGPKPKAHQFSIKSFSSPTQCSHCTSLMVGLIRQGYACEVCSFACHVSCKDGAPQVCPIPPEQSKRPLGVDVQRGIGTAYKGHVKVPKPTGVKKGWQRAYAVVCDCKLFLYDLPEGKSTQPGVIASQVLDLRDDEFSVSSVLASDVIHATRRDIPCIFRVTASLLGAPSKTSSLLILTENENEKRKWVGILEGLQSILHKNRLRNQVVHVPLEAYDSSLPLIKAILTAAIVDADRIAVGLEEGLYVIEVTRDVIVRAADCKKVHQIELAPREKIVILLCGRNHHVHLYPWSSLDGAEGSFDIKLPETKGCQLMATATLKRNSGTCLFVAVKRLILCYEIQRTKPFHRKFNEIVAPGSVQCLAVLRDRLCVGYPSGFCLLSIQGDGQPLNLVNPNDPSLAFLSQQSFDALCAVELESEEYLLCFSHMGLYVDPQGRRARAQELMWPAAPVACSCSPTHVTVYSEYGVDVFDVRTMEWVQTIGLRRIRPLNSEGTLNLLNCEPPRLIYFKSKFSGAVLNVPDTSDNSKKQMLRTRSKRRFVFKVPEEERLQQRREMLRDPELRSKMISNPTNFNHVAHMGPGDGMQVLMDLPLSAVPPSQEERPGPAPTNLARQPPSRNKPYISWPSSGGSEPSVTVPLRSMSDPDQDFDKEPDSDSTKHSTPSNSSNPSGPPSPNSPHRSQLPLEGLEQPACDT
Protocol: as §1, §2

CAMK1δ = biological target: T5, CAMK1δ (Homo sapiens, UniProt Q8IU85)
T5 construct: purchased Nanosyn (enzymatic panel); SGC in-house recombinant human kinases (DSF panel); Invitrogen (ALK1-6)
T5 sequence (Q8IU85 whole entry): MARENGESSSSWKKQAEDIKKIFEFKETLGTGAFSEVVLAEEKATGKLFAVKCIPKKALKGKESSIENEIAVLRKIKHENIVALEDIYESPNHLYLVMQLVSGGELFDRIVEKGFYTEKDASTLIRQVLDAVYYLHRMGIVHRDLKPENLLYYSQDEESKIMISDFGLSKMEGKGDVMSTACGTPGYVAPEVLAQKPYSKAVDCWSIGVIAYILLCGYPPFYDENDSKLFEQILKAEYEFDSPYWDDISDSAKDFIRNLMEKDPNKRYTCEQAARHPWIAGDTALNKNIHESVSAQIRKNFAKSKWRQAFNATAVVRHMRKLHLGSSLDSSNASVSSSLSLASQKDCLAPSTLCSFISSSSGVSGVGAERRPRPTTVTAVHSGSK
Protocol: as §1, §2

ROCK1 = biological target: T6, ROCK1 (Homo sapiens, UniProt Q13464)
T6 construct: purchased Nanosyn (enzymatic panel); SGC in-house recombinant human kinases (DSF panel); Invitrogen (ALK1-6)
Protocol: as §1, §2

LCK = biological target: T7, LCK (Homo sapiens, UniProt P06239)
T7 construct: purchased Nanosyn (enzymatic panel); SGC in-house recombinant human kinases (DSF panel); Invitrogen (ALK1-6)
T7 sequence (P06239 whole entry): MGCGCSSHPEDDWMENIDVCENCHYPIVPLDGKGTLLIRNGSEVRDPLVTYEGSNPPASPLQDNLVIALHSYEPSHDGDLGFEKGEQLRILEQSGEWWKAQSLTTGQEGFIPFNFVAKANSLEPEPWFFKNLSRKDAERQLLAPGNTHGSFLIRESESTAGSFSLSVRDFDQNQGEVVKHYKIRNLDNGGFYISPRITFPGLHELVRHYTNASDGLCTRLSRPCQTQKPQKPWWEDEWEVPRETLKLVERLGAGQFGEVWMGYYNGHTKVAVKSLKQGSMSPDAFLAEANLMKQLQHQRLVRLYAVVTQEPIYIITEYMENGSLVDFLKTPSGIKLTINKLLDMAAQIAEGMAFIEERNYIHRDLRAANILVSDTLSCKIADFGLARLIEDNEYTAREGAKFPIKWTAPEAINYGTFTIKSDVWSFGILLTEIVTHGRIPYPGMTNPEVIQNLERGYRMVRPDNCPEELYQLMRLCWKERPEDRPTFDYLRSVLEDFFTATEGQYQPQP
Protocol: as §1, §2

P70S6KB1 = biological target: T8, P70S6KB1 (Homo sapiens, UniProt P23443)
T8 construct: purchased Nanosyn (enzymatic panel); SGC in-house recombinant human kinases (DSF panel); Invitrogen (ALK1-6)
T8 sequence (P23443 whole entry): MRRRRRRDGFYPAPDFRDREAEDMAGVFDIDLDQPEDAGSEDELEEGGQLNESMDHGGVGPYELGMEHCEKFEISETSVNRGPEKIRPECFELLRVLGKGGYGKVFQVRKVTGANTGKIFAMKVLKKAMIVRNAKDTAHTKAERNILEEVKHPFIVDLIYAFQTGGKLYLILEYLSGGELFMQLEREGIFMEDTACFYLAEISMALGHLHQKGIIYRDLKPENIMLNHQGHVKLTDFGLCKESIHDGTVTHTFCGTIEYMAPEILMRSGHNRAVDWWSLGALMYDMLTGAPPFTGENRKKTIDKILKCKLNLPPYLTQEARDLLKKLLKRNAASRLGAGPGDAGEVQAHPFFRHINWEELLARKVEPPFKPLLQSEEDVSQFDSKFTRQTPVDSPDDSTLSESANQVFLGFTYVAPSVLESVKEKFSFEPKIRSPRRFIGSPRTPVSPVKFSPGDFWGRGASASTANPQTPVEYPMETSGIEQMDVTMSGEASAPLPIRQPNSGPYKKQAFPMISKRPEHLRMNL
Protocol: as §1, §2

PASK = biological target: T9, PASK (Homo sapiens, UniProt Q96RG2)
T9 construct: purchased Nanosyn (enzymatic panel); SGC in-house recombinant human kinases (DSF panel); Invitrogen (ALK1-6)
Protocol: as §1, §2

DYRK1A = biological target: T10, DYRK1A (Homo sapiens, UniProt Q13627)
T10 construct: purchased Nanosyn (enzymatic panel); SGC in-house recombinant human kinases (DSF panel); Invitrogen (ALK1-6)
Protocol: as §1, §2

AKT3 = biological target: T11, AKT3 (Homo sapiens, UniProt Q9Y243)
T11 construct: purchased Nanosyn (enzymatic panel); SGC in-house recombinant human kinases (DSF panel); Invitrogen (ALK1-6)
T11 sequence (Q9Y243 whole entry): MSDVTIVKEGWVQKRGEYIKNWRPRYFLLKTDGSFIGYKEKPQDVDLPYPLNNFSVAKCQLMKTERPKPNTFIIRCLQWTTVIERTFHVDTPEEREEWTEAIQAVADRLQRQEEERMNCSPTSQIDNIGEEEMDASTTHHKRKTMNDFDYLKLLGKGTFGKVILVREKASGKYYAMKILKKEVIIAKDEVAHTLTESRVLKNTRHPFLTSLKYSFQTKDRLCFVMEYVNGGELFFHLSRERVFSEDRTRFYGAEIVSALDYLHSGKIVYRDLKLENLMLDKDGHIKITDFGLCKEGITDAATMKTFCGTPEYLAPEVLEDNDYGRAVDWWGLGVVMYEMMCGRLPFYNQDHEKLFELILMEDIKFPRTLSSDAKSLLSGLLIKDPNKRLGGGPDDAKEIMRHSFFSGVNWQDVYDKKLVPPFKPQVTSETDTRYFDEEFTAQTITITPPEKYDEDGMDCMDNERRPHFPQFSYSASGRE
Protocol: as §1, §2

DYRK2 = biological target: T12, DYRK2 (Homo sapiens, UniProt Q92630)
T12 construct: purchased Nanosyn (enzymatic panel); SGC in-house recombinant human kinases (DSF panel); Invitrogen (ALK1-6)
T12 sequence (Q92630 1-601): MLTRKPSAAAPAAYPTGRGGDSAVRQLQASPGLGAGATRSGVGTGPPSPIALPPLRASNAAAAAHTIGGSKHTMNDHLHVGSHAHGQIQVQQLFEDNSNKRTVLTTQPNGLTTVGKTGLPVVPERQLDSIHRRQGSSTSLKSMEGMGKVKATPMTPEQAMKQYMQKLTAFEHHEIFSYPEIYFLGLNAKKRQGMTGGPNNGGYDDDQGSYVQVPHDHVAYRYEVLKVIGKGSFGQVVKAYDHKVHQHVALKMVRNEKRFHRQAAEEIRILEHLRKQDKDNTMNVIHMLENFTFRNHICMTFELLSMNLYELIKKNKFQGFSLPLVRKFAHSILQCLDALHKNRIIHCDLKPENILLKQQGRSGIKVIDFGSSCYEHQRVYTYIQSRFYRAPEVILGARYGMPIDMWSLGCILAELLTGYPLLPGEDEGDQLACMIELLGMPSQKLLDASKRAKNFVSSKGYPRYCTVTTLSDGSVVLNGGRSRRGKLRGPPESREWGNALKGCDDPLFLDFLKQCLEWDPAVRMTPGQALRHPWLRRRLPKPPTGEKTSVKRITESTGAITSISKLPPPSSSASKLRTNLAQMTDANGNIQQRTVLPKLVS
Protocol: as §1, §2

PKCθ = biological target: T13, PKCθ (Homo sapiens, UniProt Q04759)
T13 construct: purchased Nanosyn (enzymatic panel); SGC in-house recombinant human kinases (DSF panel); Invitrogen (ALK1-6)
Protocol: as §1, §2

Row | SMILES | inhibition at 0.1 µM (PRKD2) [%] | inhibition at 1 µM (PRKD2) [%] | inhibition at 0.1 µM (IGF1R) [%] | inhibition at 1 µM (IGF1R) [%] | inhibition at 0.1 µM (LYNB) [%] | inhibition at 1 µM (LYNB) [%] | inhibition at 0.1 µM (MRCKβ) [%] | inhibition at 1 µM (MRCKβ) [%] | inhibition at 0.1 µM (CAMK1δ) [%] | inhibition at 1 µM (CAMK1δ) [%] | inhibition at 0.1 µM (ROCK1) [%] | inhibition at 1 µM (ROCK1) [%] | inhibition at 0.1 µM (LCK) [%] | inhibition at 1 µM (LCK) [%] | inhibition at 0.1 µM (P70S6KB1) [%] | inhibition at 1 µM (P70S6KB1) [%] | inhibition at 0.1 µM (PASK) [%] | inhibition at 1 µM (PASK) [%] | inhibition at 0.1 µM (DYRK1A) [%] | inhibition at 1 µM (DYRK1A) [%] | other results
1 | COc1cc(-c2cc(-c3cccc(O)c3)cnc2N)cc(OC)c1OC [K02288, 3-[6-amino-5-(3,4,5-trimethoxy-phenyl)-pyridin-3-yl]-phenol] | 0.6 | 6.6 | -3 | -1 | 6 | 43 | 0.6 | 2 | -2 | -1 | 0.5 | 3.1 | 13 | 58 | -2 | -1 | 1.1 | 0.6 | 1.9 | 4.1 | inhibition at 0.1 µM (AKT3): -2%; inhibition at 1 µM (AKT3): 1.2%; inhibition at 0.1 µM (DYRK2): -1%; inhibition at 1 µM (DYRK2): -3%; inhibition at 0.1 µM (PKCθ): 0%; inhibition at 1 µM (PKCθ): 0.1%
2 | c1ccc2c(-c3cnn4cc(-c5ccc(N6CCNCC6)cc5)cnc34)ccnc2c1 [LDN-193189] | 4.5 | 13 | 4.1 | 5.4 | 7.4 | 34 | 0 | 2.1 | 0.8 | 0.9 | 0 | 0.7 | 12 | 46 | 1 | 0.6 | 1.9 | 1.4 | 10 | 53 | inhibition at 0.1 µM (AKT3): 0.2%; inhibition at 1 µM (AKT3): 1.5%; inhibition at 0.1 µM (DYRK2): 2.3%; inhibition at 1 µM (DYRK2): 0.2%; inhibition at 0.1 µM (PKCθ): 1.4%; inhibition at 1 µM (PKCθ): 1.3%
